# ChEMBL document CHEMBL1255496, “Pharmacokinetic-pharmacodynamic-model-guided doripenem dosing in critically ill patients” (2010)
# Columns and labels:
# Assay type in all cases: functional
# Escherichia coli [1] = assay: Antimicrobial activity against Escherichia coli clinical isolates
# Klebsiella pneumoniae [2] = assay: Antimicrobial activity against Klebsiella pneumoniae clinical isolates
# Klebsiella oxytoca = assay: Antimicrobial activity against Klebsiella oxytoca clinical isolates
# Citrobacter freundii = assay: Antimicrobial activity against Citrobacter freundii clinical isolates
# Citrobacter koseri = assay: Antimicrobial activity against Citrobacter koseri clinical isolates
# Enterobacter cloacae [3] = assay: Antimicrobial activity against Enterobacter cloacae clinical isolates
# Klebsiella aerogenes = assay: Antimicrobial activity against Enterobacter aerogenes clinical isolates
# Proteus mirabilis [4] = assay: Antimicrobial activity against Proteus mirabilis clinical isolates
# Morganella morganii = assay: Antimicrobial activity against Morganella morganii clinical isolates
# Serratia marcescens = assay: Antimicrobial activity against Serratia marcescens clinical isolates
# Pseudomonas aeruginosa [5] = assay: Antimicrobial activity against Pseudomonas aeruginosa clinical isolates
# Acinetobacter sp. [6] = assay: Antimicrobial activity against Acinetobacter sp. clinical isolates
# Acinetobacter baumannii = assay: Antimicrobial activity against Acinetobacter baumannii clinical isolates
# Burkholderia cepacia = assay: Antimicrobial activity against Burkholderia cepacia clinical isolates
# [7] = system: Stenotrophomonas maltophilia; assay: Antimicrobial activity against Stenotrophomonas maltophilia clinical isolates
# Haemophilus sp. = assay: Antimicrobial activity against Haemophilus sp. clinical isolates
# Enterococcus sp. = assay: Antimicrobial activity against Enterococcus sp. clinical isolates
# Enterococcus faecalis [8] = assay: Antimicrobial activity against Enterococcus faecalis clinical isolates
# Staphylococcus sp. [9] = assay: Antimicrobial activity against Staphylococcus sp. clinical isolates
# Staphylococcus aureus [10] = assay: Antimicrobial activity against Staphylococcus aureus clinical isolates
# Staphylococcus aureus [11] = assay: Antimicrobial activity against oxacillin-susceptible Staphylococcus aureus clinical isolates
# Staphylococcus sp. [12] = assay: Antimicrobial activity against Coagulase-negative Staphylococcus sp. clinical isolates
# Staphylococcus sp. [13] = assay: Antimicrobial activity against Coagulase-negative oxacillin-susceptible Staphylococcus sp. clinical isolates
# Streptococcus pneumoniae [14] = assay: Antimicrobial activity against Streptococcus pneumoniae clinical isolates
# Streptococcus sp. = assay: Antimicrobial activity against Streptococcus sp. clinical isolates
# Enterococcus faecalis [15] = assay: Antimicrobial activity against Enterococcus faecalis clinical isolate obtained from critically ill patients
# Streptococcus pneumoniae [16] = assay: Antimicrobial activity against Streptococcus pneumoniae clinical isolate obtained from critically ill patients
# Staphylococcus aureus [17] = assay: Antimicrobial activity against methicillin-susceptible Staphylococcus aureus clinical isolate obtained from critically ill patients
# Staphylococcus aureus [18] = assay: Antimicrobial activity against methicillin-resistant Staphylococcus aureus clinical isolate obtained from critically ill patients
# Acinetobacter sp. [19] = assay: Antimicrobial activity against Acinetobacter sp. clinical isolate obtained from critically ill patients
# Enterobacter cloacae [20] = assay: Antimicrobial activity against Enterobacter cloacae clinical isolate obtained from critically ill patients
# Escherichia coli [21] = assay: Antimicrobial activity against Escherichia coli clinical isolate obtained from critically ill patients
# Klebsiella pneumoniae [22] = assay: Antimicrobial activity against Klebsiella pneumoniae clinical isolate obtained from critically ill patients
# Haemophilus influenzae = assay: Antimicrobial activity against Haemophilus influenzae clinical isolate obtained from critically ill patients
# Proteus mirabilis [23] = assay: Antimicrobial activity against Proteus mirabilis clinical isolate obtained from critically ill patients
# Pseudomonas aeruginosa [24] = assay: Antimicrobial activity against Pseudomonas aeruginosa clinical isolate obtained from critically ill patients
# Enterobacteriaceae = assay: Antimicrobial activity against Enterobacteriaceae clinical isolates
# [25] = T>MIC in bacilli infected patients with moderate renal impairment at 250 mg administered as 1 hr infusion every 8 hrs
# [26] = T>MIC in bacilli infected patients with severe renal impairment at 250 mg administered as 4 hrs infusion every 12 hrs
# [27] = T>MIC in bacilli infected patients with renal impairment at 500 mg administered as 1 hr infusion every 8 hrs
smiles,measurement,setting,value
C[C@@H](O)[C@H]1C(=O)N2C(C(=O)O)=C(S[C@@H]3CN[C@H](CNS(N)(=O)=O)C3)[C@H](C)[C@H]12 [DORIPENEM],MIC,Escherichia coli [1],≤ 0.03 mg/L
same,MIC50,Escherichia coli [1],≤ 0.03 mg/L
same,MIC90,Escherichia coli [1],0.03 mg/L
same,MIC50,Klebsiella pneumoniae [2],0.06 mg/L
same,MIC90,Klebsiella pneumoniae [2],0.12 mg/L
same,MIC50,Klebsiella oxytoca,0.06 mg/L
same,MIC90,Klebsiella oxytoca,0.06 mg/L
same,MIC,Citrobacter freundii,≤ 0.03 mg/L
same,MIC50,Citrobacter freundii,≤ 0.03 mg/L
same,MIC90,Citrobacter freundii,0.06 mg/L
same,MIC,Citrobacter koseri,≤ 0.03 mg/L
same,MIC50,Citrobacter koseri,≤ 0.03 mg/L
same,MIC90,Citrobacter koseri,0.06 mg/L
same,MIC50,Enterobacter cloacae [3],0.06 mg/L
same,MIC90,Enterobacter cloacae [3],0.5 mg/L
same,MIC50,Klebsiella aerogenes,0.06 mg/L
same,MIC90,Klebsiella aerogenes,0.12 mg/L
same,MIC50,Proteus mirabilis [4],0.25 mg/L
same,MIC90,Proteus mirabilis [4],0.5 mg/L
same,MIC50,Morganella morganii,0.25 mg/L
same,MIC90,Morganella morganii,1 mg/L
same,MIC50,Serratia marcescens,0.12 mg/L
same,MIC90,Serratia marcescens,0.25 mg/L
same,MIC50,Pseudomonas aeruginosa [5],0.5 mg/L
same,MIC90,Pseudomonas aeruginosa [5],4 mg/L
same,MIC50,Acinetobacter sp. [6],0.5 mg/L
same,MIC90,Acinetobacter sp. [6],32 mg/L
same,MIC50,Acinetobacter baumannii,1 mg/L
same,MIC90,Acinetobacter baumannii,32 mg/L
same,MIC,Burkholderia cepacia,2 mg/L
same,MIC50,[7],64 mg/L
same,MIC90,[7],> 128 mg/L
same,MIC50,Haemophilus sp.,0.06 mg/L
same,MIC90,Haemophilus sp.,0.25 mg/L
same,MIC50,Enterococcus sp.,4 mg/L
same,MIC90,Enterococcus sp.,32 mg/L
same,MIC50,Enterococcus faecalis [8],4 mg/L
same,MIC90,Enterococcus faecalis [8],4 mg/L
same,MIC50,Staphylococcus sp. [9],≤ 0.03 mg/L
same,MIC90,Staphylococcus sp. [9],16 mg/L
same,MIC50,Staphylococcus aureus [10],≤ 0.03 mg/L
same,MIC90,Staphylococcus aureus [10],16 mg/L
same,MIC,Staphylococcus aureus [11],≤ 0.03 mg/L
same,MIC50,Staphylococcus aureus [11],≤ 0.03 mg/L
same,MIC90,Staphylococcus aureus [11],0.06 mg/L
same,MIC50,Staphylococcus sp. [12],0.06 mg/L
same,MIC90,Staphylococcus sp. [12],16 mg/L
same,MIC,Staphylococcus sp. [13],≤ 0.03 mg/L
same,MIC50,Staphylococcus sp. [13],≤ 0.03 mg/L
same,MIC90,Staphylococcus sp. [13],0.25 mg/L
same,MIC,Streptococcus pneumoniae [14],≤ 0.03 mg/L
same,MIC50,Streptococcus pneumoniae [14],≤ 0.03 mg/L
same,MIC90,Streptococcus pneumoniae [14],0.5 mg/L
same,MIC,Streptococcus sp.,≤ 0.03 mg/L
same,MIC50,Streptococcus sp.,≤ 0.03 mg/L
same,MIC90,Streptococcus sp.,0.06 mg/L
same,MIC50,Enterococcus faecalis [15],4 mg/L
same,MIC90,Enterococcus faecalis [15],4 mg/L
same,MIC,Streptococcus pneumoniae [16],≤ 0.015 mg/L
same,MIC50,Streptococcus pneumoniae [16],≤ 0.015 mg/L
same,MIC90,Streptococcus pneumoniae [16],0.5 mg/L
same,MIC50,Staphylococcus aureus [17],0.03 mg/L
same,MIC90,Staphylococcus aureus [17],0.06 mg/L
same,MIC50,Staphylococcus aureus [18],1 mg/L
same,MIC90,Staphylococcus aureus [18],16 mg/L
same,MIC50,Acinetobacter sp. [19],16 mg/L
same,MIC90,Acinetobacter sp. [19],> 32 mg/L
same,MIC50,Enterobacter cloacae [20],0.06 mg/L
same,MIC90,Enterobacter cloacae [20],0.12 mg/L
same,MIC50,Escherichia coli [21],0.03 mg/L
same,MIC90,Escherichia coli [21],0.06 mg/L
same,MIC50,Klebsiella pneumoniae [22],0.06 mg/L
same,MIC90,Klebsiella pneumoniae [22],0.25 mg/L
same,MIC50,Haemophilus influenzae,0.12 mg/L
same,MIC90,Haemophilus influenzae,0.5 mg/L
same,MIC50,Proteus mirabilis [23],0.25 mg/L
same,MIC90,Proteus mirabilis [23],1 mg/L
same,MIC50,Pseudomonas aeruginosa [24],0.5 mg/L
same,MIC90,Pseudomonas aeruginosa [24],8 mg/L
same,MIC,Enterobacteriaceae,≤ 0.03 mg/L
same,MIC50,Enterobacteriaceae,≤ 0.03 mg/L
same,MIC90,Enterobacteriaceae,0.12 mg/L
same,fT>MIC,[25],35%
same,fT>MIC,[26],35%
same,fT>MIC,[27],35%
